# Patent US11213514B2, “Alpha-1-adrenergic receptor agonist therapy” (The Regents of the University of California, priority 2016, dated 2022)
# Like-named read-outs stand apart in the source and are kept apart here.
# Key:
# wild type (WT) mice = test: Doxorubicin cardiotoxicity in wild type mice (survival, anatomy, conscious echocardiography, fibrosis)
# From the text: FIGS. 2A-2B. […] On Day 7 the mice underwent echocardiography prior to sacrifice. FIG. 2A. Fractional shortening, a measure of contractile function, with representative M-mode echocardiogram images. […] FIG. 2B. Heart sections from some of these mice (i.e. wild type mice) stained with Masson Trichrome. Fibrosis (weighted average collagen content) was quantified using Aperio ImageScope software.
# On Day 7, mice underwent echocardiography and were sacrificed by cervical dislocation after an overdose of isoflurane.
# Conscious transthoracic echocardiography was performed on loosely restrained mice in the McAllister Heart Institute Animal Models Core using a VisualSonics Vevo 2100 ultrasound system (VisualSonics, Inc., Toronto, Ontario, Canada). Two-dimensional and M-mode echocardiography were performed in the parasternal long-axis view at the level of the papillary muscle. Left ventricular systolic function was assessed by fractional shortening (% FS=[(LVEDD−LVESD)/LVEDD]×100). Reported values represent the average of at least five cardiac cycles per mouse. Sonographers and investigators were blinded to mouse treatment condition during image acquisition and analysis.
# Mice were heparinized and the heart was perfused with 10 mL PBS followed by 20 mL of 4% PFA/PBS through a 23 G butterfly needle, excised and placed in 4% PFA/PBS for 24 hours then transferred to 70% EtOH. Hearts were stained using standard methods in the UNC Histology Research Core. Fibrosis was analyzed in 3 Masson Trichrome (MT)-stained sections of 4 or 5 hearts from each treatment group. Slides were scanned using an Aperio ScanScope (Aperio Technologies, Vista, Calif.) and analyzed in Aperio ImageScope software. The Algorithm Positive Pixel Count v9 was used to measure collagen staining by MT using hue value (0.66) and hue width (0.1) The N positive/N total value was used to determine a weighted average collagen content (%) for each section.
# [1] = tested on: Complex I, ATP synthase and Cytochrome C oxidase subunit transcripts; test: RNAseq transcript abundance of mitochondrial gene sets in mouse heart; assay type: in vivo
# Experimental: (§1) FIGS. 3A-3E. […] FIG. 3A. […] FIG. 3B. […] FIG. 3C. […] FIG. 3E.
# An omnibus test of transcript abundance across all groups was performed with DESeq2 with groups encoded as categorical variables. One hundred-one genes were identified as significant by meeting the q<0.05 threshold (the set of genes with a 5% false discovery rate). Note, genes of potential interest can be found in Table 4.
# (§2) (FIG. 3B). […] (FIG. 3C).
# RNAseq was performed at the Carolina Center for Genome Sciences High Throughput Sequencing Facility. Libraries were prepared using an Illumina RNA TruSeq kit for total RNA. Single read sequencing (1×100) was performed on an Illumina HiSeq 2000 system. QC-passed reads were aligned to the mouse reference genome (mm9) using MapSplice.3 The alignment profile was determined by Picard Tools v1.64 (broadinstitute.github.io/picard/). Aligned reads were sorted and indexed using SAMtools and translated to transcriptome coordinates then filtered for indels, large inserts, and zero mapping quality using UBU v1.0 (github.com/mozack/ubu). Transcript abundance estimates for each sample were performed using RSEM, an expectation-maximization algorithm4 using the UCSC knownGene transcript and gene definitions. Raw RSEM read counts for all RNAseq samples were normalized to the overall upper quartile.5 Gene level differential expression testing was performed using the method of Love et al. (2014) implemented in the R package DESeq2. Gene set level tests were performed using the method of Efron and Tibshirani (2006) and gene sets as defined in the molecular signatures database, mSigdb.6 .GEO accession number is pending.
# mouse heart ATP content = tested on: mouse heart ATP content
# Experimental: FIGS. 3A-3E. […] Heart tissue was collected immediately after sacrifice on Day 7. FIG. 3A. […] Gene set analysis was performed on the DESeq2-derived statistics from an omnibus test across these four categories. […] FIG. 3B. RNA abundance for all sequenced cytochrome C oxidase subunits (25 genes), mitochondrial complex I subunits (42 genes), and ATP synthase subunits (17 genes) was aggregated by group and compared to vehicle treatment. FIG. 3C. Quantitative RT-PCR for peroxisome proliferator-activated receptor gamma coactivator 1-alpha (PGC1α) was performed on mouse heart tissue (n in individual bars) FIG. 3D. ATP content was measured in freshly harvested mouse heart tissue (total n in individual bars), then quantified relative to protein content. […] FIG. 3E. Thiobarbituric acid reactive substances (TBARS) were assayed in mouse myocardium.
# as §2
# Mouse hearts were removed and immediately processed for luciferin-luciferase ATP assay (ThermoFisher Scientific A22066) according to manufacturer instruction. Tissue was homogenized and heated at 95 C for 7 minutes, centrifuged at 14000 rpm for 5 minutes. Total protein in the supernatant was quantified using the Bradford Assay (Pierce #23200). Luminescence was measured at 560 nm.
# [2] = tested on: TBARS (lipid peroxidation) in mouse myocardium; test: Thiobarbituric acid reactive substances (TBARS) in mouse heart tissue; assay type: in vivo
# From the text: as §1, §2
# [3] = tested on: cytochrome c, caspases, PARP; test: Immunoblot for cytochrome c and downstream effectors of apoptosis in NRVMs; assay type: cell-based, rat; conditions: NRVM lysates, 4 hours
# Experimental: FIG. 6A-6C. […] FIG. 6A. Mitochondrial membrane potential was assessed using JC-1 and fluorescent intensity was quantified using a plate reader. Red indicates intact mitochondrial membrane potential; green indicates compromised mitochondrial membrane potential (relative). Lysates were blotted for selected regulators of apoptosis and mitochondrial cell death effectors.
# Homogenized tissue or cells were lysed in RIPA buffer with protease and phosphatase inhibitor (as above) and the lysate was passed through a Qiashredder. Equal protein abundance was assured with the Bradford assay (tissue lysates) or equal cell number (NRVMs). Samples were run for 2 hours at 140 v on ice on a Novex NuPAGE 4-12% Bis-Tris gel then transferred to a PVDF membrane at 90V for 1 hour on ice. Membranes were blocked in 5% milk at room temperature for 1 hour. We used Cell Signaling kit #9100 (pERK Thr202/Tyr204 1:250, ERK 1:1000, anti-rabbit HRP 1:1000). BID: (Santa Cruz, SC-11423); Cytochrome C: (Santa Cruz, SC-13560); AIF: (Santa Cruz, SC-13116); Caspase 8: (MBL international corporation, JM-3020-100); PARP: (Cell Signaling, #9532); Caspase 3: (Cell Signaling, #9665); Cleaved caspase 3: (Cell Signaling, #9664)
# [4] = WT mice, dabuzalgron after DOX, Day 7
# [5] = wild type mice, Dox 20 mg/kg i.p. + dabuzalgron 20 μg/kg/d gavage 7 days
# [6] = wild type mice, Dox + 1240 20 μg/kg/d, Day 7 echocardiography
# [7] = DOX + dabuzalgron 10 μg/kg twice daily
# [8] = dabuzalgron in the absence of DOX
smiles,measurement,setting,value
"COc1cccc2c1C(=O)c1c(O)c3c(c(O)c1C2=O)C[C@@](O)(C(=O)CO)C[C@@H]3O[C@H]1C[C@H](N)[C@H](O)[C@H](C)O1 [DOX, doxorubicin]","burden of fibrosis, Masson Trichrome","wild type (WT) mice; mouse, in vivo",increased significantly
same,"contractile function, conscious echocardiography","wild type (WT) mice; mouse, in vivo",decrease
same,7-day survival,"wild type (WT) mice; wild type mice, Dox 20 mg/kg i.p. + vehicle gavage 7 days",78%
same,7-day survival,"wild type (WT) mice; wild type mice, Dox 20 mg/kg i.p. + vehicle gavage 7 days, listed as Dox",78%
same,abundance of ATP synthase subunits (17 genes),"[1]; DOX 20 mg/kg, Day 7",decreased
same,abundance of Complex I subunits (42 genes),"[1]; DOX 20 mg/kg, Day 7",decreased
same,decrease in ATP content compared to untreated hearts,"mouse heart ATP content; mouse, in vivo",23±7%
same,TBARS abundance,[2]; hearts of mice treated with DOX,more abundant
same,cleavage of caspases and PARP,[3]; doxorubicin 2 μM,caused cleavage
same,cytochrome c release,[3]; doxorubicin 2 μM,increased
"Cc1c(OCC2=NCCN2)ccc(Cl)c1NS(C)(=O)=O [dabuzalgron, N-[6-chloro-3-(4,5-dihydro-1H-imidazol-2-ylmethoxy)-2-methylphenyl]methanesulfonamide]",effect of dabuzalgron on DOX-induced decrease in survival,"wild type (WT) mice; DOX 20 mg/kg i.p., dabuzalgron 10 μg/kg twice daily 7 days",not fully mitigated
same,effect on DOX-induced decrease in contractile function,"wild type (WT) mice; WT mice, Day 7, dabuzalgron after DOX",prevented
same,fractional shortening after DOX,wild type (WT) mice; [4],preserved
same,left ventricular end systolic volume after DOX,wild type (WT) mice; [4],preserved
same,effect on DOX-induced increase in fibrosis,"wild type (WT) mice; WT mouse heart sections, dabuzalgron after DOX",mitigated
same,echocardiographic parameters,"wild type (WT) mice; mouse, in vivo",no effect
same,7-day survival,wild type (WT) mice; [5],86%
same,Body Wt Day 7,wild type (WT) mice; [5],24.3 ± 0.6 g
same,HW/BW,wild type (WT) mice; [5],0.41 ± 0.02 %
same,HW/TL,wild type (WT) mice; [5],5.5 ± 0.3 mg/mm
same,Heart Wt,wild type (WT) mice; [5],97 ± 5 mg
same,Lung Wt/TL,wild type (WT) mice; [5],7.7 ± 0.4 mg/mm
same,FS (Fractional Shortening),wild type (WT) mice; [6],53 ± 1 %
same,HR (Heart Rate),wild type (WT) mice; [6],667 ± 10 beats per minute
same,LVs vol (Left Ventricular systolic volume),wild type (WT) mice; [6],5 µL
same,"PWd (Posterior Wall, diastole)",wild type (WT) mice; [6],0.9 mm
same,expression of ATP synthase subunits after DOX,[1]; [7],restored
same,expression of Complex I subunits after DOX,[1]; [7],restored
same,expression of Cytochrome C oxidase subunits (25 genes) after DOX,[1]; [7],increased
same,ATP synthase subunit abundance,[1]; [8],no significant effect
same,Complex I subunit abundance,[1]; [8],increased
same,Cytochrome C (oxidase subunit) abundance,[1]; [8],no significant effect
same,ATP content,mouse heart ATP content; hearts of DOX-treated mice,restored
same,ATP content,mouse heart ATP content; uninjured mice,did not affect
same,TBARS content,[2]; co-administration of dabuzalgron with DOX,normalized
same,effect on DOX-induced cytochrome c release and cleavage of caspases and PARP,[3]; doxorubicin 2 μM with Dabuzalgron 10 μM,abrogated
